Measurements taken from patent US20260262643A1, “HERBICIDAL BENZOXAZINES” (FMC CORPORATION, priority 2022, published 2026).

Tests used:
[1] = test system: foxtail, giant; test: Test C postemergence; format: in vivo, Setaria faberi; conditions: 10 days, 0 to 100 scale (0 no effect, 100 complete control)
How it was run: (§1)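 Pre: seeds in loam/sand, directed soil spray. Post: 1–2 leaf plants, 2–10 cm. Cmpd in non-phytotoxic solvent + surfactant. Greenhouse 10 d; visual rating vs untreated, 0 = none, 100 = complete control.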

[2] = test system: oat, wild; test: Test C postemergence; format: in vivo, Avena fatua; conditions: 10 days, 0 to 100 scale (0 no effect, 100 complete control)
How it was run: as §1

[3] = test system: blackgrass; test: Test C preemergence; format: in vivo, Alopecurus myosuroides
How it was run: as §1

[4] = test system: barnyardgrass; test: Test D flooded paddy test; format: in vivo, Echinochloa crus-galli; conditions: 250 g ai/ha, applied to paddy water, visual rating after 13 to 14 days, scale 0 to 100 (0 no effect, 100 complete control)
How it was run: (§2)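 Plants grown to the 2-leaf stage; pots flooded to 3 cm above soil at treatment and held at that depth throughout. Test compounds applied directly to the paddy water. After 13 to 14 days in a greenhouse, response was rated visually versus controls on a 0 (no effect) to 100 (complete control) scale.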

[5] = test system: kochia; test: Test C preemergence; format: in vivo, Bassia scoparia
How it was run: as §1

[6] = test system: pigweed, palmer; test: Test C postemergence; format: in vivo, Amaranthus palmeri; conditions: 10 days, 0 to 100 scale (0 no effect, 100 complete control)
How it was run: as §1

[7] = test system: soybean; test: Test C postemergence; format: in vivo, Glycine max; conditions: 10 days, 0 to 100 scale (0 no effect, 100 complete control)
How it was run: as §1

[8] = test system: oat, wild; test: Test C preemergence; format: in vivo, Avena fatua
How it was run: as §1

[9] = test system: wheat; test: Test C preemergence; format: in vivo, Triticum aestivum
How it was run: as §1

[10] = test system: ragweed; test: Test C postemergence; format: in vivo, Ambrosia artemisiifolia; conditions: 10 days, 0 to 100 scale (0 no effect, 100 complete control)
How it was run: as §1

[11] = test system: soybean; test: Test C preemergence; format: in vivo, Glycine max
How it was run: as §1

[12] = test system: barnyardgrass; test: Test C postemergence; format: in vivo, Echinochloa crusgalli; conditions: 10 days, 0 to 100 scale (0 no effect, 100 complete control)
How it was run: as §1

[13] = test system: ducksalad; test: Test D flooded paddy test; format: in vivo, Heteranthera limosa; conditions: 250 g ai/ha, applied to paddy water, visual rating after 13 to 14 days, scale 0 to 100 (0 no effect, 100 complete control)
How it was run: as §2

[14] = test system: pigweed, palmer; test: Test C preemergence; format: in vivo, Amaranthus palmeri
How it was run: as §1

[15] = test system: corn; test: Test C postemergence; format: in vivo, Zea mays; conditions: 10 days, 0 to 100 scale (0 no effect, 100 complete control)
How it was run: as §1

[16] = test system: blackgrass; test: Test C postemergence; format: in vivo, Alopecurus myosuroides; conditions: 10 days, 0 to 100 scale (0 no effect, 100 complete control)
How it was run: as §1

[17] = test system: ryegrass, Italian; test: Test C postemergence; format: in vivo, Lolium multiflorum; conditions: 10 days, 0 to 100 scale (0 no effect, 100 complete control)
How it was run: as §1

[18] = test system: foxtail, giant; test: Test C preemergence; format: in vivo, Setaria faberi
How it was run: as §1

[19] = test system: corn; test: Test C preemergence; format: in vivo, Zea mays
How it was run: as §1

[20] = test system: horseweed; test: Test C postemergence; format: in vivo, Erigeron canadensis; conditions: 10 days, 0 to 100 scale (0 no effect, 100 complete control)
How it was run: as §1

[21] = test system: sedge, umbrella; test: Test D flooded paddy test; format: in vivo, Cyperus difformis; conditions: 250 g ai/ha, applied to paddy water, visual rating after 13 to 14 days, scale 0 to 100 (0 no effect, 100 complete control)
How it was run: as §2

[22] = test system: barnyardgrass; test: Test C preemergence; format: in vivo, Echinochloa crusgalli
How it was run: as §1

[23] = test system: galium; test: Test C postemergence; format: in vivo, Galium aparine; conditions: 10 days, 0 to 100 scale (0 no effect, 100 complete control)
How it was run: as §1

[24] = test system: wheat; test: Test C postemergence; format: in vivo, Triticum aestivum; conditions: 10 days, 0 to 100 scale (0 no effect, 100 complete control)
How it was run: as §1

[25] = test system: rice; test: Test D flooded paddy test; format: in vivo, Oryza sativa; conditions: 250 g ai/ha, applied to paddy water, visual rating after 13 to 14 days, scale 0 to 100 (0 no effect, 100 complete control)
How it was run: as §2

[26] = test system: kochia; test: Test C postemergence; format: in vivo, Bassia scoparia; conditions: 10 days, 0 to 100 scale (0 no effect, 100 complete control)
How it was run: as §1

[27] = test system: ragweed; test: Test C preemergence; format: in vivo, Ambrosia artemisiifolia
How it was run: as §1

[28] = test system: ryegrass, Italian; test: Test C preemergence; format: in vivo, Lolium multiflorum
How it was run: as §1

[29] = 500 g ai/ha, preemergence, 0 to 100 scale (0 no effect, 100 complete control)
[30] = Preemergence, 125 g ai/ha, 0 to 100 scale, 0 no effect, 100 complete control

`CCc1ncn(-c2cc(C(=O)N3CC(C(F)(F)F)Oc4c(C)cccc43)ccn2)n1` (stereo not shown) [Compound 318] was tested, and the “Plant response rating, Foxtail, Giant” value ([1]; 500 g ai/ha, postemergence) was 90, the “Plant response rating, Foxtail, Giant” value ([1]; Postemergence, 125 g ai/ha) was 90 and the “Plant response rating, Oat, Wild” value ([2]; 500 g ai/ha, postemergence) was 80. For the same molecule, the “Plant response rating, Oat, Wild” value ([2]; Postemergence, 125 g ai/ha) was 40, the “Blackgrass plant response rating” value [3, 29] was 90 and the “Plant response rating, Blackgrass” value [3, 30] was 80. For the same molecule, the “Plant response rating, Barnyardgrass (Flood)” value [4] was 45, the “Kochia plant response rating” value [5, 29] was 90 and the “Plant response rating, Kochia” value [5, 30] was 70. The “Plant response rating, Pigweed, Palmer” value ([6]; 500 g ai/ha, postemergence) was 60, the “Plant response rating, Pigweed, Palmer” value ([6]; Postemergence, 125 g ai/ha) was 20 and the “Plant response rating, Soybean” value ([7]; 500 g ai/ha, postemergence) was 100. The “Plant response rating, Soybean” value ([7]; Postemergence, 125 g ai/ha) was 100, the “Oat, Wild plant response rating” value [8, 29] was 90 and the “Plant response rating, Oat, Wild” value [8, 30] was 50. The “Wheat plant response rating” value [9, 29] was 90, the “Plant response rating, Wheat” value [9, 30] was 30 and the “Plant response rating, Ragweed” value ([10]; 500 g ai/ha, postemergence) was 30. The “Plant response rating, Ragweed” value ([10]; Postemergence, 125 g ai/ha) was 0, the “Soybean plant response rating” value [11, 29] was 100 and the “Plant response rating, Soybean” value [11, 30] was 30. For the same molecule, the “Plant response rating, Barnyardgrass” value ([12]; 500 g ai/ha, postemergence) was 70, the “Plant response rating, Barnyardgrass” value ([12]; Postemergence, 125 g ai/ha) was 50 and the “Plant response rating, Ducksalad (Flood)” value [13] was 10. The “Pigweed, Palmer plant response rating” value [14, 29] was 90, the “Plant response rating, Pigweed, Palmer” value [14, 30] was 50 and the “Plant response rating, Corn” value ([15]; 500 g ai/ha, postemergence) was 80. For the same molecule, the “Plant response rating, Corn” value ([15]; Postemergence, 125 g ai/ha) was 70, the “Plant response rating, Blackgrass” value ([16]; 500 g ai/ha, postemergence) was 90 and the “Plant response rating, Blackgrass” value ([16]; Postemergence, 125 g ai/ha) was 60. The “Plant response rating, Ryegrass, Italian” value ([17]; 500 g ai/ha, postemergence) was 100, the “Plant response rating, Ryegrass, Italian” value ([17]; Postemergence, 125 g ai/ha) was 60 and the “Foxtail, Giant plant response rating” value [18, 29] was 100. For the same molecule, the “Plant response rating, Foxtail, Giant” value [18, 30] was 100, the “Corn plant response rating” value [19, 29] was 80 and the “Plant response rating, Corn” value [19, 30] was 30. The “Plant response rating, Horseweed” value ([20]; 500 g ai/ha, postemergence) was 20, the “Plant response rating, Horseweed” value ([20]; Postemergence, 125 g ai/ha) was 0 and the “Plant response rating, Sedge, Umbrella (Flood)” value [21] was 45. For the same molecule, the “Barnyardgrass plant response rating” value [22, 29] was 100, the “Plant response rating, Barnyardgrass” value [22, 30] was 90 and the “Plant response rating, Galium” value ([23]; 500 g ai/ha, postemergence) was 100. For the same molecule, the “Plant response rating, Galium” value ([23]; Postemergence, 125 g ai/ha) was 100, the “Plant response rating, Wheat” value ([24]; 500 g ai/ha, postemergence) was 50 and the “Plant response rating, Wheat” value ([24]; Postemergence, 125 g ai/ha) was 40. For the same molecule, the “Plant response rating, Rice (Flood)” value [25] was 15, the “Plant response rating, Kochia” value ([26]; 500 g ai/ha, postemergence) was 80 and the “Plant response rating, Kochia” value ([26]; Postemergence, 125 g ai/ha) was 50. The “Ragweed plant response rating” value [27, 29] was 40, the “Plant response rating, Ragweed” value [27, 30] was 0 and the “Ryegrass, Italian plant response rating” value [28, 29] was 100. For the same molecule, the “Plant response rating, Ryegrass, Italian” value [28, 30] was 90.
